Reference: PubChem BioAssay AID1259407 (Chemical Carcinogenesis Research Information System (CCRIS), 2018)
The source made the active and inactive calls. No rule for the calls is given here.

Test system: CCRIS mutagenicity, Ames/micronucleus/aberration tests
Assay: CCRIS mutagenicity studies
[1] = Test System: AMES SALMONELLA TYPHIMURIUM, Strain/Indicator: TA98, Metabolic Activation: NONE, Method: PREINCUBATION
[2] = Test System: AMES SALMONELLA TYPHIMURIUM, Strain/Indicator: TA100, Metabolic Activation: NONE, Method: PREINCUBATION

COc1cc(-c2ccc(N/N=C3/C(=O)c4c(N)cc(S(=O)(=O)O)cc4C=C3S(=O)(=O)O)c(OC)c2)ccc1N/N=C1/C(=O)c2c(N)cc(S(=O)(=O)O)cc2C=C1S(=O)(=O)O
mutagenic call (End Point: IN VITRO CHROMOSOMAL ABERRATIONS, Test System: CHINESE HAMSTER OVARY CELLS, Metabolic Activation: NONE): inactive; negative | mutagenic call (End Point: IN VITRO CHROMOSOMAL ABERRATIONS, Test System: CHINESE HAMSTER OVARY CELLS, Metabolic Activation: RAT, LIVER, S-9, AROCLOR 1254): inactive; negative | mutagenic call (Test System: AMES SALMONELLA TYPHIMURIUM, Strain/Indicator: SV50, Metabolic Activation: HAMSTER, LIVER, S-9, Method: PREINCUBATION (PRIVAL METHOD)): active; positive | mutagenic call (Test System: AMES SALMONELLA TYPHIMURIUM, Strain/Indicator: SV50, Metabolic Activation: RAT, LIVER, S-9, AROCLOR 1254, Method: PREINCUBATION (PRIVAL METHOD)): active; positive | mutagenic call (Test System: AMES SALMONELLA TYPHIMURIUM, Strain/Indicator: TA98, Metabolic Activation: HAMSTER, LIVER, S-9, AROCLOR 1254 (10%), Method: PREINCUBATION): inactive; negative | mutagenic call (Test System: AMES SALMONELLA TYPHIMURIUM, Strain/Indicator: TA98, Metabolic Activation: HAMSTER, LIVER, S-9, Method: PREINCUBATION (PRIVAL METHOD)): active; positive | mutagenic call [1]: inactive; negative | mutagenic call (Test System: AMES SALMONELLA TYPHIMURIUM, Strain/Indicator: TA98, Metabolic Activation: RAT, LIVER, S-9, AROCLOR 1254 (10%), Method: PREINCUBATION): inactive; negative | mutagenic call (Test System: AMES SALMONELLA TYPHIMURIUM, Strain/Indicator: TA98, Metabolic Activation: RAT, LIVER, S-9, AROCLOR 1254, Method: PREINCUBATION (PRIVAL METHOD)): active; positive | mutagenic call (Test System: AMES SALMONELLA TYPHIMURIUM, Strain/Indicator: TA100, Metabolic Activation: HAMSTER, LIVER, S-9, AROCLOR 1254 (10%), Method: PREINCUBATION): inactive; negative | mutagenic call [2]: inactive; negative | mutagenic call (Test System: AMES SALMONELLA TYPHIMURIUM, Strain/Indicator: TA100, Metabolic Activation: RAT, LIVER, S-9, AROCLOR 1254 (10%), Method: PREINCUBATION): inactive; negative | mutagenic call (Test System: AMES SALMONELLA TYPHIMURIUM, Strain/Indicator: TA1535, Metabolic Activation: HAMSTER, LIVER, S-9, AROCLOR 1254 (10%), Method: PREINCUBATION): inactive; negative | mutagenic call (Test System: AMES SALMONELLA TYPHIMURIUM, Strain/Indicator: TA1535, Metabolic Activation: NONE, Method: PREINCUBATION): inactive; negative | mutagenic call (Test System: AMES SALMONELLA TYPHIMURIUM, Strain/Indicator: TA1535, Metabolic Activation: RAT, LIVER, S-9, AROCLOR 1254 (10%), Method: PREINCUBATION): inactive; negative | mutagenic call (Test System: AMES SALMONELLA TYPHIMURIUM, Strain/Indicator: TA1537, Metabolic Activation: HAMSTER, LIVER, S-9, AROCLOR 1254 (10%), Method: PREINCUBATION): inactive; negative | mutagenic call (Test System: AMES SALMONELLA TYPHIMURIUM, Strain/Indicator: TA1537, Metabolic Activation: NONE, Method: PREINCUBATION): inactive; negative | mutagenic call (Test System: AMES SALMONELLA TYPHIMURIUM, Strain/Indicator: TA1537, Metabolic Activation: RAT, LIVER, S-9, AROCLOR 1254 (10%), Method: PREINCUBATION): inactive; negative | mutagenic call (Test System: AMES SALMONELLA TYPHIMURIUM, Strain/Indicator: TA1538, Metabolic Activation: FLAVIN MONONUCLEOTIDE REDUCTION, HAMSTER, LIVER, S-9, Method: PREINCUBATION): active; positive | mutagenic call (Test System: AMES SALMONELLA TYPHIMURIUM, Strain/Indicator: TA1538, Metabolic Activation: RAT, CECAL BACTERIAL REDUCTION, S-9, AROCLOR 1254, Method: PREINCUBATION): active; positive | mutagenic call (Test System: AMES SALMONELLA TYPHIMURIUM, Strain/Indicator: TA1538, Metabolic Activation: RAT, LIVER, S-9, AROCLOR 1254, Method: PREINCUBATION): active; positive | mutagenic call (Test System: AMES SALMONELLA TYPHIMURIUM, Strain/Indicator: TA1538, Metabolic Activation: RAT, LIVER, S-9, AROCLOR 1254, Method: STANDARD PLATE): active; positive

COC(=O)N/N=C/c1c[n+]([O-])c2ccccc2[n+]1[O-]
mutagenic call [1]: active; positive | mutagenic call (Test System: AMES SALMONELLA TYPHIMURIUM, Strain/Indicator: TA98, Metabolic Activation: S-9, Method: PREINCUBATION): active; positive | mutagenic call (Test System: E. COLI, Strain/Indicator: WP2 UVRA (PKM101), Metabolic Activation: NONE): active; positive | mutagenic call (Test System: E. COLI, Strain/Indicator: WP2 UVRA (PKM101), Metabolic Activation: S-9): active; positive

O=[N+]([O-])c1ccc2c(ccc3c4ccccc4ccc23)c1
mutagenic call (Test System: AMES SALMONELLA TYPHIMURIUM, Strain/Indicator: TA98(1,8-DNP6), Metabolic Activation: NONE): active; positive | mutagenic call (Test System: AMES SALMONELLA TYPHIMURIUM, Strain/Indicator: TA98(1,8-DNP6), Metabolic Activation: RAT, LIVER, S-9, AROCLOR 1254): active; positive | mutagenic call (Test System: AMES SALMONELLA TYPHIMURIUM, Strain/Indicator: TA98(NR), Metabolic Activation: NONE): active; positive | mutagenic call (Test System: AMES SALMONELLA TYPHIMURIUM, Strain/Indicator: TA98(NR), Metabolic Activation: RAT, LIVER, S-9, AROCLOR 1254): active; positive | mutagenic call (Test System: AMES SALMONELLA TYPHIMURIUM, Strain/Indicator: TA98, Metabolic Activation: NONE): active; positive | mutagenic call (Test System: AMES SALMONELLA TYPHIMURIUM, Strain/Indicator: TA98, Metabolic Activation: RAT, LIVER, S-9, AROCLOR 1254): active; positive | mutagenic call (Test System: AMES SALMONELLA TYPHIMURIUM, Strain/Indicator: TA100(NR), Metabolic Activation: NONE): active; positive | mutagenic call (Test System: AMES SALMONELLA TYPHIMURIUM, Strain/Indicator: TA100(NR), Metabolic Activation: RAT, LIVER, S-9, AROCLOR 1254): active; positive | mutagenic call (Test System: AMES SALMONELLA TYPHIMURIUM, Strain/Indicator: TA100, Metabolic Activation: NONE): active; positive | mutagenic call (Test System: AMES SALMONELLA TYPHIMURIUM, Strain/Indicator: TA100, Metabolic Activation: RAT, LIVER, S-9, AROCLOR 1254): active; positive | mutagenic call (Test System: AMES SALMONELLA TYPHIMURIUM, Strain/Indicator: TA104, Metabolic Activation: NONE): active; positive | mutagenic call (Test System: AMES SALMONELLA TYPHIMURIUM, Strain/Indicator: TA104, Metabolic Activation: RAT, LIVER, S-9, AROCLOR 1254): active; positive

Nc1nc(Cl)nc2c1ncn2[C@H]1C[C@H](O)[C@@H](CO)O1
mutagenic call (End Point: In vivo chromosomal aberrations, Test System: Bone marrow cells, Species: Mouse, Strain/Sex: Balb/C/Male and female, Route: Intraperitoneal): inactive; negative

NC(=O)Nc1cccc2cccnc12
mutagenic call (Test System: AMES SALMONELLA TYPHIMURIUM, Strain/Indicator: TA100, Metabolic Activation: S-9, Method: PREINCUBATION): inactive; negative

c1ccc2sncc2c1
mutagenic call (Test System: AMES SALMONELLA TYPHIMURIUM, Strain/Indicator: TA98, Metabolic Activation: NONE, Method: STANDARD PLATE): inactive; negative | mutagenic call (Test System: AMES SALMONELLA TYPHIMURIUM, Strain/Indicator: TA98, Metabolic Activation: S-9, Method: STANDARD PLATE): inactive; negative | mutagenic call (Test System: AMES SALMONELLA TYPHIMURIUM, Strain/Indicator: TA100, Metabolic Activation: NONE, Method: STANDARD PLATE): inactive; negative | mutagenic call (Test System: AMES SALMONELLA TYPHIMURIUM, Strain/Indicator: TA100, Metabolic Activation: S-9, Method: STANDARD PLATE): inactive; negative | mutagenic call (Test System: AMES SALMONELLA TYPHIMURIUM, Strain/Indicator: TA1535, Metabolic Activation: NONE, Method: STANDARD PLATE): inactive; negative | mutagenic call (Test System: AMES SALMONELLA TYPHIMURIUM, Strain/Indicator: TA1535, Metabolic Activation: S-9, Method: STANDARD PLATE): inactive; negative | mutagenic call (Test System: AMES SALMONELLA TYPHIMURIUM, Strain/Indicator: TA1537, Metabolic Activation: NONE, Method: STANDARD PLATE): inactive; negative | mutagenic call (Test System: AMES SALMONELLA TYPHIMURIUM, Strain/Indicator: TA1537, Metabolic Activation: S-9, Method: STANDARD PLATE): inactive; negative

Cc1cc(=O)oc2cc3c(cc12)C1(C)OOC1(C)O3 (stereo not given)
mutagenic call [2]: active; positive

Fc1ccc(F)c2c1ccc1cccnc12
mutagenic call (Test System: AMES SALMONELLA TYPHIMURIUM, Strain/Indicator: TA100, Metabolic Activation: RAT, LIVER, S-9, PHENOBARBITAL AND 5,6-BENZOFLAVONE, Method: PREINCUBATION): active; positive
